Laboratory results published in the supplement of paper PMC10307832.

How the values were obtained:
Assay in all cases: relative viability (nuclei count vs DMSO), 5 days (fraction); higher = more cells survive
[1] = compound: CCN1C(=O)C2=CC(=C(N=C2N(C1=O)C3CC3)N)C(=O)N + O=C(c1cc(Cc2n[nH]c(=O)c3ccccc23)ccc1F)N1CCN(C(=O)C2CC2)CC1 [Olaparib] (partner 8 µM)
Method in brief: (§1)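 After 5 days of treatment, lung cancer cells in 1536-well plates were fixed and stained in a single step (final 0.05% Triton X-100, 1% formaldehyde, 1 ug/ml Hoechst) and their nuclei counted on 4× images. Treatment had been applied by pin tool the day after seeding as one drug alone or as a fixed anchor-drug dose with five library-drug doses (not always all listed) in √10 steps. Relative viability is the nuclei count of treated wells divided by that of vehicle wells, and values are medians of duplicate plates.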

[2] = compound: CCN1C(=O)C2=CC(=C(N=C2N(C1=O)C3CC3)N)C(=O)N + Nc1nc2[nH]cc(CCc3ccc(C(=O)N[C@@H](CCC(=O)O)C(=O)O)cc3)c2c(=O)[nH]1 [Pemetrexed] (partner 0.2 µM)
Method in brief: as §1

[3] = compound: CCN1C(=O)C2=CC(=C(N=C2N(C1=O)C3CC3)N)C(=O)N + CC(=O)c1c(C)c2cnc(Nc3ccc(N4CCNCC4)cn3)nc2n(C2CCCC2)c1=O [Palbociclib] (partner 0.5 µM)
Method in brief: as §1

[4] = compound: CCN1C(=O)C2=CC(=C(N=C2N(C1=O)C3CC3)N)C(=O)N + N=C(N)NC(=N)NCCc1ccccc1 [Phenformin] (partner 250 µM)
Method in brief: as §1

[5] = compound: CCN1C(=O)C2=CC(=C(N=C2N(C1=O)C3CC3)N)C(=O)N + CS(=O)(=O)CCNCc1ccc(-c2ccc3ncnc(Nc4ccc(OCc5cccc(F)c5)c(Cl)c4)c3c2)o1 [Lapatinib] (partner 2 µM)
Method in brief: as §1

Cell Line | relative viability ([1]; first compound 0.253 µM) | relative viability ([1]; first compound 0.8 µM) | relative viability ([1]; first compound 2.53 µM) | relative viability ([1]; first compound 8 µM) | relative viability ([2]; first compound 0.253 µM) | relative viability ([2]; first compound 0.8 µM) | relative viability ([2]; first compound 2.53 µM) | relative viability ([2]; first compound 8 µM) | relative viability ([3]; first compound 0.253 µM) | relative viability ([3]; first compound 0.8 µM) | relative viability ([3]; first compound 2.53 µM) | relative viability ([3]; first compound 8 µM) | relative viability ([4]; first compound 0.253 µM) | relative viability ([4]; first compound 0.8 µM) | relative viability ([4]; first compound 2.53 µM) | relative viability ([4]; first compound 8 µM) | relative viability ([5]; first compound 0.253 µM) | relative viability ([5]; first compound 0.8 µM) | relative viability ([5]; first compound 2.53 µM) | relative viability ([5]; first compound 8 µM)
201T | 0.87 | 0.869 | 0.832 | 0.901 | 0.328 | 0.309 | 0.34 | 0.313 | 0.392 | 0.348 | 0.38 | 0.369 | 0.478 | 0.474 | 0.442 | 0.47 | 1.03 | 0.949 | 0.967 | 0.98
A549 |  | 0.305 | 0.302 | 0.392 |  |  |  |  |  |  |  |  |  | 0.22 | 0.155 | 0.155 | 0.981 | 0.914 | 0.94 | 1.1
A-427 | 0.763 | 0.792 | 0.703 | 0.744 | 0.952 | 0.927 | 1.08 | 0.927 | 0.497 | 0.522 | 0.486 | 0.535 | 0.376 | 0.307 | 0.376 | 0.343 | 1.06 | 0.963 | 1.05 | 1.01
ABC-1 | 0.92 |  | 1.05 | 0.742 |  |  |  |  | 0.819 |  | 0.709 | 0.799 | 0.24 | 0.22 | 0.274 | 0.25 | 1.08 | 1.4 | 0.969 | 1.29
BEN | 1.16 | 1.09 | 1.01 | 1.08 | 0.896 | 0.842 | 0.929 | 0.699 | 0.448 | 0.478 | 0.411 | 0.456 | 0.251 | 0.273 | 0.264 | 0.284 | 0.776 | 0.638 | 0.827 | 0.697
CAL-12T | 0.734 | 0.717 | 0.682 | 0.658 | 1.02 | 1.31 | 1.06 | 1.15 | 0.452 | 0.448 | 0.475 | 0.418 | 0.565 | 0.61 | 0.49 | 0.547 | 0.528 |  | 0.716 | 0.859
COR-L23 | 0.413 | 0.319 | 0.19 | 0.398 | 0.188 | 0.202 | 0.191 | 0.213 | 0.355 | 0.334 | 0.322 | 0.266 | 0.429 | 0.442 | 0.435 | 0.423 | 0.927 | 1.03 | 0.745 | 1.04
COR-L 105 | 0.728 | 0.768 | 0.779 | 0.677 | 0.941 | 1.01 | 0.991 | 1.16 | 0.377 | 0.431 | 0.397 | 0.366 | 0.452 | 0.391 | 0.498 | 0.379 | 0.308 | 0.339 | 0.424 | 0.398
ChaGo-K-1 | 0.442 | 0.437 | 0.404 | 0.434 | 0.272 | 0.264 | 0.263 | 0.246 | 0.898 | 0.97 | 0.897 | 0.99 | 0.485 | 0.446 | 0.561 | 0.472 |  |  |  | 
EKVX | 0.849 | 0.972 | 0.792 | 0.682 | 0.397 | 0.414 | 0.282 | 0.351 | 0.63 | 0.471 | 0.401 | 0.348 | 0.256 | 0.248 | 0.316 | 0.231 | 0.23 | 0.25 | 0.222 | 0.196
EMC-BAC-2 | 0.546 |  | 0.498 | 0.487 | 0.461 |  | 0.403 | 0.431 | 0.543 |  | 0.47 | 0.468 | 0.597 | 0.478 | 0.478 | 0.56 | 0.937 | 0.849 | 0.859 | 0.888
EPLC-272H |  | 0.752 | 0.975 | 1.08 |  | 0.265 | 0.301 | 0.368 | 0.309 | 0.358 | 0.331 | 0.358 | 0.322 | 0.32 | 0.357 | 0.32 | 0.834 | 0.867 | 0.932 | 1.13
H3255 | 0.567 | 0.556 | 0.567 | 0.633 | 0.588 | 0.555 | 0.536 | 0.558 | 0.321 | 0.335 | 0.327 | 0.279 | 0.427 | 0.306 | 0.315 | 0.359 | 0.246 | 0.216 | 0.192 | 0.258
HARA | 0.897 | 0.904 | 0.915 | 0.841 | 0.223 | 0.232 | 0.246 | 0.216 | 0.265 | 0.32 | 0.195 | 0.229 | 0.433 | 0.478 | 0.414 | 0.401 | 0.809 | 0.688 | 0.839 | 0.69
HCC-15 | 0.749 | 0.774 | 0.651 | 0.725 | 0.231 | 0.221 | 0.2 | 0.235 | 0.764 | 0.731 | 0.675 | 0.712 | 0.456 | 0.472 | 0.473 | 0.44 | 0.816 | 0.903 | 0.782 | 0.859
HCC-44 | 0.982 | 0.976 | 0.999 | 0.975 | 0.588 | 0.641 | 0.613 | 0.668 | 0.998 | 0.912 | 0.972 | 1 | 0.296 | 0.18 | 0.277 | 0.185 | 0.927 | 1.01 | 1.03 | 0.986
HCC-78 | 0.807 | 0.902 | 0.691 | 0.959 | 0.866 | 0.949 | 0.813 | 0.842 | 0.472 | 0.463 | 0.509 | 0.449 | 0.747 |  | 0.75 | 0.685 | 0.581 | 0.626 | 0.937 | 0.719
